# US20100317767A1, “FULLERENE FILM AND FULLERENE POLYMER BOTH PRODUCED FROM FULLERENE DERIVATIVE AND PROCESSES FOR PRODUCING THESE” (FRONTIER CARBON CORPORATION, priority 2006, published 2010)
# Read-outs that look alike come from different tables or passages of the source.
# Assays:
# [1] = TG-DTA examination in air atmosphere; assay type: physicochemical; settings: for weight loss (TG-DTA): 300° C. (in air), heating rate 10° C./min
# Experimental: Compounds 1 to 6 synthesized in (1) to (6) above were examined by TG-DTA (thermogravimetric-differential thermal analysis) in order to investigate the behavior thereof in thermal decomposition. The examination was made with apparatus for both differential thermal analysis and thermogravimetry TG/DTA6200, manufactured by SII Nano Technology Inc., in an air atmosphere (flow rate, 200 mL/min) under the conditions of a heating rate of 10° C./min. In [60]fullerene, a large weight loss accompanied by heat generation began to be observed at around 500° C. This weight loss was due to oxidation/combustion. […] This large weight loss is thought to be attributable to the pyrolysis of the fullerene derivative.
# [2] = cited from earlier work
# [3] = Solubility of fullerene derivatives in toluene (HPLC determination); assay type: physicochemical
# Experimental: The solubility of a fullerene derivative can be determined, for example, by diluting a solution of the fullerene derivative with a good solvent, e.g., toluene, and examining the dilution with an analyzer such as, e.g., a high-performance liquid chromatograph (HPLC). More specifically, the procedure is as follows. A dilution of the fullerene derivative solution is analyzed with an HPLC having an ultraviolet/visible detector to determine that peak intensity for the fullerene derivative which is obtained from the absorbance of an ultraviolet light having a specific wavelength (e.g., 290 nm). The concentration of the fullerene derivative in the dilution of the fullerene derivative solution is determined from a calibration curve obtained beforehand from fullerene derivative standard solutions having known concentrations (prepared using the solvent used for diluting the fullerene derivative solution). This concentration value is multiplied by the dilution ratio to thereby determine the fullerene derivative concentration in the original fullerene derivative solution.
# [4] = TG examination in nitrogen atmosphere; assay type: physicochemical; settings: for weight loss (TG-DTA): heating rate 10° C./min; for temperature of weight loss attributable to pyrolysis, compared with air: in nitrogen, result in words
# Experimental: The examination was made with apparatus for both differential thermal analysis and thermogravimetry TG/DTA6200, manufactured by SII Nano Technology Inc., in a nitrogen atmosphere (flow rate, 200 mL/min) under the conditions of a heating rate of 10° C./min.
# [5] = Washing of coating films with toluene before and after heat treatment; assay type: physicochemical; settings: coating film
# Experimental: A 5% by mass PGMEA solution of each of Compounds 1, 2, and 5 and a 5% by mass cyclohexanone solution of each of Compounds 3 and 4 were prepared. Each solution was applied to a glass substrate (50×50 mm) with a spin coater and dried at 100° C. Thereafter, the coating films were examined with an optical microscope. As a result, these coating films were ascertained to be even. These coating films were washed with toluene. As a result, the films were removed. It was thus ascertained that the coating films from which the solvent had been removed were soluble in toluene.
# The coating films of Compounds 1 to 5 each formed on a glass substrate in (8) were placed in an electric furnace heated at 300° C. and heat-treated for 10 minutes in an air atmosphere.
# The fullerene films obtained by the heat treatment of the coating films of Compounds 1 to 3 were examined by X-ray diffractometry (XRD) with RINT 2500, manufactured by Rigaku Corp. […] Measuring conditions are as follows.
# The films which had undergone the heat treatment(s) were washed with toluene. […] It can be seen that although the fullerene derivatives applied in film form had been soluble in toluene solvent, the derivatives became insoluble, through the heat treatment(s), in the solvent in which the fullerene is soluble.
# [6] = after heat treatment (300° C./in air), 10 minutes
compound,measurement,setting,value
c12c3c4c5c1c1c6c7c2c2c8c3c3c9c4c4c%10c5c5c1c1c6c6c%11c7c2c2c7c8c3c3c8c9c4c4c9c%10c5c5c1c1c6c6c%11c2c2c7c3c3c8c4c4c9c5c1c1c6c2c3c41 [[60]fullerene],temperature of oxidation/combustion (large weight loss with heat generation / large exothermic peak),[1]; in air,around 500 °C
same,solubility of [60]fullerene in the solvent,"[2]; 1,2,3-trimethylbenzene",4700 µg/mL
same,solubility of [60]fullerene in the solvent,"[2]; 1,2,4-trichlorobenzene",10400 µg/mL
same,solubility of [60]fullerene in the solvent,"[2]; 1,2,4-trimethylbenzene",17900 µg/mL
same,solubility of [60]fullerene in the solvent,"[2]; 1,3,5-trimethylbenzene",1500 µg/mL
same,solubility of [60]fullerene in the solvent,[2]; 1-methylnaphthalene,33200 µg/mL
same,solubility of [60]fullerene in the solvent,[2]; 1-phenylnaphthalene,50000 µg/mL
same,solubility of [60]fullerene in the solvent,[2]; N-methyl-2-pyrrolidone,890 µg/mL
same,solubility of [60]fullerene in the solvent,[2]; bromobenzene,2800 µg/mL
same,solubility of [60]fullerene in the solvent,[2]; chlorobenzene,5700 µg/mL
same,solubility of [60]fullerene in the solvent,[2]; chloroform,500 µg/mL
same,solubility of [60]fullerene in the solvent,[2]; cyclohexane,50 µg/mL
same,solubility of [60]fullerene in the solvent,[2]; decalin,4600 µg/mL
same,solubility of [60]fullerene in the solvent,[2]; dichloromethane,250 µg/mL
same,solubility of [60]fullerene in the solvent,[2]; ethylbenzene,2600 µg/mL
same,solubility of [60]fullerene in the solvent,[2]; m-dichlorobenzene,2400 µg/mL
same,solubility of [60]fullerene in the solvent,[2]; m-xylene,1400 µg/mL
same,solubility of [60]fullerene in the solvent,[2]; n-decane,70 µg/mL
same,solubility of [60]fullerene in the solvent,[2]; n-dodecane,90 µg/mL
same,solubility of [60]fullerene in the solvent,[2]; n-hexane,40 µg/mL
same,solubility of [60]fullerene in the solvent,[2]; n-tetradecane,126 µg/mL
same,solubility of [60]fullerene in the solvent,[2]; o-dichlorobenzene,24600 µg/mL
same,solubility of [60]fullerene in the solvent,[2]; o-xylene,8700 µg/mL
same,solubility of [60]fullerene in the solvent,[2]; p-xylene,5900 µg/mL
same,solubility of [60]fullerene in the solvent,[2]; quinoline,7200 µg/mL
same,solubility of [60]fullerene in the solvent,[2]; tetrahydrofuran,37 µg/mL
same,solubility of [60]fullerene in the solvent,[2]; toluene,2900 µg/mL
same,solubility of [60]fullerene in the solvent,[2]; xylene,5200 µg/mL
C60 (t-Butoxycarbonylmethylpiperazine)4(O) [Compound 6],weight loss (TG-DTA),[1],38%
same,temperature of weight loss attributable to pyrolysis of the fullerene derivative,[1]; in air,around 200 °C
same,Solubility in toluene,[3],≥ 10%
same,weight loss (TG-DTA),[4]; 300° C. (in nitrogen),50%
same,"temperature of weight loss attributable to pyrolysis, compared with air",[4],almost the same temperature as in air
N-(4-hydroxyphenyl)-2-n-dodecylpyrrolidine-C60 [Compound 3],weight loss attributable to fullerene derivative pyrolysis,"[1]; TG in air, result in words",No weight loss attributable to fullerene derivative pyrolysis was observed
same,Solubility in toluene,[3],6%
same,Solubility in toluene,[5]; [6],soluble
same,Solubility in toluene,"[5]; after heat treatment (500° C./in air), 10 minutes",insoluble
same,Solubility in toluene,[5]; before heat treatment,soluble
same,weight loss (TG-DTA),[4]; 600° C. (in nitrogen),12%
C60(tBu-isonipecotate)4(O) [Compound 5],weight loss (TG-DTA),[1],37%
same,temperature of weight loss attributable to pyrolysis of the fullerene derivative,[1]; in air,around 200 °C
same,Solubility in toluene,[3],≥ 10%
same,Solubility in toluene,[5]; [6],insoluble
same,Solubility in toluene,[5]; before heat treatment,soluble
same,weight loss (TG-DTA),[4]; 300° C. (in nitrogen),44%
same,"temperature of weight loss attributable to pyrolysis, compared with air",[4],almost the same temperature as in air
